{"source": "patent US8138214B2", "about": "“Pharmaceutical composition” (Shanghai Allist Pharmaceutical, Inc., priority 2007, dated 2012)", "key": {"[1]": {"details": "dog, in vivo, po, 27 mg/kg", "description": "(I) Beagle dogs are selected as experimental animals, six dogs per group. 2-butyl-4-chloro-1-[2′-(1H-tetrazol-5-yl) 1,1′-biphenyl-methyl]imidazole-5-carboxylic acid, 1-[(isopropoxy)carbonyloxy]methyl ester suspended in physiologic saline is administered in single dose of drug by gavage in dosage level of 3.0 mg/kg, 9.0 mg/kg, and 27 mg/kg. Blood samples were drawn for each dosage group at set time point. […] Determine the level of the active metabolite in plasma, calculate EXP3174's pharmacokinetic parameters according to the concentration-time curve, and investigate the correlation between dosage and main pharmacokinetic parameters Cmax and AUC0-t."}, "[2]": {"system": "spontaneously hypertensive rat (SHR)", "assay": "Blood pressure in spontaneously hypertensive rat after gavage", "format": "in vivo", "details": "for blood pressure decrease: SHR, dispersed in physiologic saline"}}, "data": [{"smiles": "CCCCc1nc(Cl)c(C(=O)OCOC(=O)OC(C)C)n1Cc1ccc(-c2ccccc2-c2nnn[nH]2)cc1", "note": "[Compound I, 2-butyl-4-chloro-1-[2′-(1H-tetrazol-5-yl)1,1′-biphenyl-methyl]imidazole-5-carboxylic acid, 1-[(isopropoxy)carbonyloxy]methyl ester]", "values": [{"measurement": "correlation between dosage and Cmax and AUC0-t of EXP3174", "setting": "[1]", "value": "proportional to the dosage"}, {"measurement": "blood pressure decrease", "setting": "[2]; 15 mg/kg by gavage", "value": "10 mm of mercury column"}, {"measurement": "blood pressure decrease", "setting": "[2]; 30 mg/kg by gavage", "value": "20 mm of mercury column"}, {"measurement": "antihypertensive effect", "setting": "[2]; rats, oral dosage no less than 15 mg/kg", "value": "significant antihypertensive effect"}]}]}
